Laboratory results published in publication PMC7926793, “Synthesis and Biological Evaluation of 1-(Diarylmethyl)-1H-1,2,4-triazoles and 1-(Diarylmethyl)-1H-imidazoles as a Novel Class of Anti-Mitotic Agent for Activity in Breast Cancer” (Pharmaceuticals, 2021).

Assays:
[1] = tested on: MCF-7 human breast cancer cells; assay: alamarBlue cell viability assay; type: cell-based; conditions: Homo sapiens, 72 h; for IC50: MCF7, 72 h, alamarBlue, read-out: Antiproliferative Activity MCF-7 Cells IC50
Method: (§1) The human breast carcinoma cell line MCF-7 was purchased from the European Collection of Animal Cell Cultures (ECACC) and cultured in Eagles minimum essential medium with 10% foetal bovine serum, 2 mM L-glutamine, and 100 μg/mL penicillin/streptomycin. The medium was supplemented with 1% non-essential amino acids. The human breast carcinoma cell line MDA-MB-231 was purchased from the ECACC. MDA-MB-231 cells were maintained in Dulbecco’s modified Eagle’s medium (DMEM) supplemented with 10% (v/v) foetal bovine serum, 2 mM L-glutamine, and 100 μg/mL penicillin/streptomycin (complete medium). HL-60 cells were derived from a patient with acute myeloid leukaemia and were obtained from the ECACC (Salisbury, UK). Cells were cultured in RPMI-1640 Glutamax medium supplemented with 10% FCS media and 100 μg/mL penicillin/streptomycin. MCF-10A cells were obtained as a kind gift from Dr Susan McDonnell, School of Chemical and Bioprocess Engineering, University College Dublin and were cultured in Dulbecco’s Modified Eagle Medium: Nutrient Mixture F-12 (DMEM/F12; Gibco) supplemented with 5% horse serum (Invitrogen), 20 ng mL^−1 epidermal growth factor (Merck Millipore), 0.5 μg mL^−1 hydrocortisone (Sigma,-Aldrich, Arklow, Co. Wicklow, Ireland), 100 ng mL^−1 cholera toxin (Sigma, Aldrich, Arklow, Co. Wicklow, Ireland), 10 μg mL^−1 insulin (Sigma, Aldrich, Arklow, Co. Wicklow, Ireland), and penicillin/streptomycin 5000 U mL^−1 (1%)(Gibco, Biosciences, 3 Charlemont Terrace, Crofton Road, Dun Laoghaire, Co Dublin, A96 K7H7, Ireland). Cells were maintained at 37 °C in 5% CO2 in a humidified incubator. All cells were sub-cultured 3 times/week by trypsinisation using TrypLE Express (1×).
(§2) Cells were seeded at a density of 2.5 × 10^4 cells/well (MCF-7, MDA-MB-231, MCF-10A cells) and 1 × 10^4 cells/well (HL-60) in 96-well plates (200 μL per well). After 24 h, cells were then treated with either medium alone, vehicle control (1% ethanol (v/v)) or with serial dilutions of CA-4 (4a), phenstatin (7a) or selected compounds (0.001–100 μM) in triplicate. Cell proliferation for MCF-7, MDA-MB-231, and MCF-10A cells was analysed using the alamarBlue assay (Invitrogen Corp.) according to the manufacturer’s instructions. After 67–69 h, alamarBlue (10% (v/v)) was added to each well, and plates were incubated for 3–5 h at 37 °C in the dark. Fluorescence was read using a 96-well fluorimeter with excitation at 530 nm and emission at 590 nm. Results were expressed as percentage viability relative to vehicle control (100%).

[2] = tested on: tubulin (microtubule network) in MCF-7 cells; assay: immunofluorescence confocal microscopy of microtubule network; type: cell-based, human; conditions: 1 μM, 16 h
Method: Confocal microscopy was used to study the effects of drug treatment on MCF-7 cytoskeleton. For immunofluorescence, MCF-7 cells were seeded at 1 × 10^5 cells/mL on eight chamber glass slides (BD Biosciences). […] Following treatment, cells were gently washed in PBS, fixed for 20 min with 4% paraformaldehyde in PBS, and permeabilised in 0.5% Triton X-100. Following washes in PBS containing 0.1% Tween (PBST), cells were blocked in 5% bovine serum albumin diluted in PBST. […] Following washes in PBST, the cells were mounted in Ultra Cruz Mounting Media (Santa Cruz Biotechnology, Santa Cruz, CA) containing 4,6-diamino-2-phenolindol dihydrochloride (DAPI). Images were captured by Leica SP8 confocal microscopy with Leica application suite X software. All images in each experiment were collected on the same day using identical parameters. Experiments were performed on three independent occasions.

[3] = tested on: MDA-MB-231 human breast cancer cells; assay: alamarBlue cell viability assay; type: cell-based; conditions: Homo sapiens, MDA-MB-231, 72 h, read-out: Antiproliferative Activity MDA-MB-231 Cells IC50
Method: as §1, §2

HL-60 leukaemia cells = assay: cell viability assay; type: cell-based; conditions: Homo sapiens, read-out: Antiproliferative Activity HL-60 Cells IC50
Method: as §1, with “Cells were maintained at 37 °C in 5% CO2 in a humidified incubator. All cells were sub-cultured 3 times/week by trypsinisation using TrypLE Express (1×).” left out
Cells were seeded at a density of 2.5 × 10^4 cells/well (MCF-7, MDA-MB-231, MCF-10A cells) and 1 × 10^4 cells/well (HL-60) in 96-well plates (200 μL per well). […] Cell proliferation for MCF-7, MDA-MB-231, and MCF-10A cells was analysed using the alamarBlue assay (Invitrogen Corp.) according to the manufacturer’s instructions. […] Fluorescence was read using a 96-well fluorimeter with excitation at 530 nm and emission at 590 nm. Results were expressed as percentage viability relative to vehicle control (100%).

[4] = MCF7, read-out: cell viability (viable cells)

SMILES	melting point [°C]	viability at 1 µM [1, 4] [%]	other results
COc1ccc(C(c2cc(OC)c(OC)c(OC)c2)N2CCN(c3ccccc3)CC2)cc1OCc1ccccc1 (stereo not drawn) [27g, 1-((3-(Benzyloxy)-4-Methoxyphenyl)(3,4,5-Trimethoxyphenyl)Methyl)-4-Phenylpiperazine]	124 to 126		
COc1ccc(C(c2ccc(C#N)cc2)n2cncn2)cc1O (stereo not drawn) [19h, 4-((3-Hydroxy-4-Methoxyphenyl)(1H-1,2,4-Triazol-1-yl)Methyl)Benzonitrile]	168 to 170		IC50 [1]: > 100000 nM
N#Cc1ccc(C(c2ccc(OCc3ccccc3)cc2)n2cncn2)cc1 (stereo not drawn) [19g, 4-((4-(Benzyloxy)Phenyl)(1H-1,2,4-Triazol-1-yl)Methyl)Benzonitrile]	79 to 81		
c1ccc(COc2ccc(C(c3ccccc3)n3cncn3)cc2)cc1 (stereo not drawn) [13j, 1-((4-(Benzyloxy)Phenyl)(Phenyl)Methyl)-1H-1,2,4-Triazole]	132 to 134		
O=[N+]([O-])c1ccc(C(c2ccccc2)n2ccnc2)cc1 (stereo not drawn) [20b]		73	
O=C(Nc1ccc(C(c2ccccc2)n2cncn2)cc1)C(F)(F)F (stereo not drawn) [13i, 2,2,2-Trifluoro-N-(4-(Phenyl(1H-1,2,4-Triazol-1-yl)Methyl)Phenyl)Acetamide]	143 to 145		
COc1ccc(C(c2ccccc2)N2CCCC2)cc1 (stereo not drawn) [25d]		80	
COc1cc(C(c2cc(OC)c(OC)c(OC)c2)n2ccnc2)cc(OC)c1OC [21i, 1-(Bis(3,4,5-Trimethoxyphenyl)Methyl)-1H-Imidazole]	154 to 156		
CC(=O)O[C@H]1C(=O)[C@@]2(C)[C@H]([C@H](OC(=O)c3ccccc3)[C@]3(O)C[C@H](OC(=O)[C@H](O)[C@@H](NC(=O)c4ccccc4)c4ccccc4)C(C)=C1C3(C)C)[C@]1(OC(C)=O)CO[C@@H]1C[C@@H]2O [paclitaxel, reference compound]			effect on microtubule network of MCF-7 cells [2]: Hyperpolymerisation of tubulin
CCOc1ccc(C(c2ccccc2)n2cncn2)cc1 (stereo not drawn) [13l, 1-((4-Ethoxyphenyl)(Phenyl)Methyl)-1H-1,2,4-Triazole]	98 to 100		
N#Cc1ccc(C(c2ccc(O)cc2)n2cncn2)cc1 (stereo not drawn) [19i, 4-((4-Hydroxyphenyl)(1H-1,2,4-Triazol-1-yl)Methyl)Benzonitrile]			IC50 [1]: > 100000 nM
Brc1ccc(C(c2ccccc2)n2ccnc2)cc1 (stereo not drawn) [20c, 1-((4-Bromophenyl)(Phenyl)methyl)-1H-Imidazole]	126 to 128		
Fc1ccc(C(c2ccccc2)n2ccnc2)cc1 (stereo not drawn) [20d]		67	
Nc1ccc(C(c2ccccc2)n2cncn2)cc1 (stereo not drawn) [13m, 4-(Phenyl(1H-1,2,4-Triazol-1-yl)Methyl)Aniline]	149 to 151	72	
COc1ccc(C(c2cc(OC)c(OC)c(OC)c2)N2CCN(c3ccccc3)CC2)cc1O (stereo not drawn) [27i, 2-Methoxy-5-((4-Phenylpiperazin-1-yl)(3,4,5-Trimethoxyphenyl)Methyl)Phenol]			viability at 10 µM [1, 4]: 48%
Fc1ccc(C(c2ccccc2)n2cncn2)cc1 (stereo not drawn) [13c, 1-((4-Fluorophenyl)(Phenyl)Methyl)-1H-1,2,4-Triazole]	96 to 99		
Brc1ccc(C(c2ccccc2)N2CCCC2)cc1 (stereo not drawn) [25b, 1-((4-Bromophenyl)(Phenyl)methyl)Pyrrolidine]	70 to 72		
COc1ccc(/C=C\c2cc(OC)c(OC)c(OC)c2)cc1O [CA-4, reference compound]		24	IC50 [1]: 3.9 ± 0.32 nM; IC50 [3]: 43 nM; IC50 (HL-60 leukaemia cells): 1.9 ± 0.5 nM
COc1cc(C(c2ccc(F)cc2)n2cncn2)cc(OC)c1OC (stereo not drawn) [16g]		77	
Oc1ccc(C(c2ccc(O)cc2)n2cncn2)cc1 [13o]		68	
COc1ccc(C(c2cc(OC)c(OC)c(OC)c2)n2cncn2)cc1 (stereo not drawn) [16c]		75	
COc1ccc(C(c2cc(OC)c(OC)c(OC)c2)N2CCN(c3ccc(C)cc3)CC2)cc1 (stereo not drawn) [27f]		76	viability at 0.1 µM ([1]; MCF7, 0.1 μM, read-out: cell viability (viable cells)): 84%; viability at 10 µM [1, 4]: 42%
COc1ccc(C(c2ccc(C#N)cc2)n2cncn2)cc1OCc1ccccc1 (stereo not drawn) [19f, 4-((3-(Benzyloxy)-4-Methoxyphenyl)(1H-1,2,4-Triazol-1-yl)Methyl)Benzonitrile]	91 to 93		
COc1cc(C(c2ccccc2)n2cncn2)cc(OC)c1OC (stereo not drawn) [16e, 1-(Phenyl(3,4,5-Trimethoxyphenyl)Methyl)-1H-1,2,4-Triazole]	139 to 140		
COc1ccc(C(c2cc(OC)c(OC)c(OC)c2)n2cncn2)cc1OCc1ccccc1 (stereo not drawn) [19a, 1-((3-(Benzyloxy)-4-Methoxyphenyl)(3,4,5-Trimethoxyphenyl)Methyl)-1H-1,2,4-Triazole]	98 to 100		
Oc1ccc(C(c2ccccc2)n2cncn2)cc1 (stereo not drawn) [13n, 4-(Phenyl(1H-1,2,4-Triazol-1-yl)Methyl)Phenol]	189 to 191		
